# Assays:
# [1] = tested on: keratinocytes, Schwann cells and fibroblast; assay: Cell viability MTT assay; assay type: cell-based, human; conditions: concentrations of 4-AP used in vitro; 24 hours
# Protocol: The keratinocytes, Schwann cells and fibroblast were culture on 96-well plates, the wells were pre-coated with respective coating matrix in complete growth medium and incubated cells for 12-18 hours at 37° C. in 5% CO2 incubator. Cells were washed with PBS and added basal Schwann cells/fibroblast/keratinocytes medium to starve, then incubated for 4 hours at 37° C. with 5% CO2. After the incubation period, various concentrations of 4-AP (concentrations ranging from 1 to 10000 μM) in 100 μL containing respective medium's (complete keratinocytes, Schwann cells and fibroblast medium), cells were incubated either 24 hours at +37° C. and 5% CO2 incubator. After completion of incubation time, 10 μL of the MTT labeling reagent (final concentration 0.5 mg/ml) was added to each well and incubate at +37° C. for 4 hours in a humidified atmosphere. Then, 100 μL of the solubilization solution into each well and allow the plate to stand in the incubator overnight or until the formazan crystals had dissolved. […] The formazan absorbance was read using wavelength of 550 nm in a plate reader. The color of optical density (OD) is directly propositional to number of live cells. The percentage of live keratinocytes/Schwann cells/fibroblast cells was determined using the following formula. […]
# C57BL/6 mice = assay: Full thickness excisional splinted wound model: wound closure and histomorphometry; assay type: in vivo; conditions: for wound closure: daily systemic 4-AP
# Text: The effect of 4-AP in promoting cutaneous wound healing and tissue regeneration was investigated using a full thickness excisional wound model (FIG. 3A). Excisional wounds (5 mm) were splinted with silicone rings to prevent wound contraction, in 10-wk-old male C57BL/6 mice, which were then randomized and treated with either saline or systemic 4-AP (dosage to correspond to human dosage) daily for 14 days. Wounds were monitored by digital imaging for morphometry, percentage of wound healing, and tissue regeneration on days 3, 5, 7, 9, 12 and 14 post wound (PWD) (when tissue was harvested).
# Male C57BL/6 (10 week) mice were purchased from the Jackson Laboratory (Bar Harbor, ME USA). Mice were anesthetized by intraperitoneal injection of ketamine (60 mg/kg) and xylazine (4 mg/kg) body weight, and the dorsal skin hair was removed using mechanical shaver and then, applied the hair removal cream. Skin was disinfected using 70% ethanol and betadine for 3 times. The dorsal skin was folded and raised cranially and caudally at midline using index fingers and thumbs, and place the animal in a lateral position and two 5-mm wounds created in their dorsal skin using sterile biopsy punch. A 5-mm-diameter silicone ring was then placed and sutured around the each wound to restrict contraction. After wound creation and sutured silicone ring, wound site was photographed, and wound surface was covered with a Tegaderm (3M) sterile transparent dressing. After surgery, mice was administered SR Buprenorphine (0.05 mg/kg) as a post-operative analgesia. The mice were randomized into the following two groups: a control group (vehicle control), which received 100 μl of saline, and a 4-AP group. In total […]/mouse/daily 4-AP in 90-110 μl of saline intraperitoneally (IP) was administered until day 14 post wound. Digital imaging of the wound was used was determined for each wound healing by quantification of wound area based on digital pictures taken from day 0 to day 14 (days 0, 3, 5, 7, 9, 12 and 14) post-surgery (FIG. 3A). Wound areas were measured in pixel using ImageJ-1.53e software (National Institutes of Health, USA) and normalized/corrected each wound area with reference scale and wound healing expressed as percentage with respect to day 0 wound, using following formula.
# At the day 14 wound skin sample were collected after mice were euthanized using CO2 and skin samples were excised, either flash frozen or fixed in a buffered 4% formaldehyde solution at 4° C., overnight for samples to be embedded in paraffin and the wound skin paraffin blocks were processed into serially cut into […] sections on a Microtome (Leica RM2235, Germany). The wound skin sections were used for morphometric analysis and immunofluorescence staining. […] sectioned wound skin samples of day 14 were sections were deparaffinised using xylene and ethyl alcohol and stained with hematoxylin and eosin (H&E). To evaluate the epidermis thickness, and wound induced hair follicle formation, four randomly fields of each H&E-stained sections were imaged under a light microscope (Olympus BX53, Olympus, Tokyo, Japan) at 1000 magnification. The values of each mice were averaged, and then groups were compared. To measure the wound induced hair follicles, similar to above procedure, the number of hair follicles at dermis were counted and then average value calculated for each group. To understand the collagen formation, maturation and deposition Masson's trichome analysis were performed as per manufacture instructions (Sigma-Aldrich, Catalog No.: HT15-1KT).
smiles,measurement,setting,value
"Nc1ccncc1 [4-AP, 4-aminopyridine]",cell viability,[1],not affected
same,re-epithelialization of wound,C57BL/6 mice; by day 14,completely re-epithelialized
same,wound closure,C57BL/6 mice; day 3 post wound,22.35±0.30%
same,collagen deposition in dermis (Masson's Trichrome),"C57BL/6 mice; day 14, compared to saline",elevated collagen deposition
same,fold increase in WIHN,"C57BL/6 mice; day 14, vs saline-treated mice",1.8 fold
same,wound closure,C57BL/6 mice; day 14 post wound,98.24±0.10%
same,thickness of newly formed epidermis (H&E),C57BL/6 mice; day 14 wound tissue,29.7 ± 1.3 µm
same,mean number of hair follicles (wound-induced hair neogenesis),"C57BL/6 mice; day 14 wound tissue, H&E",45

# Source: patent publication US20240024216A1, “METHODS AND MATERIALS FOR TREATING HAIR LOSS” (The Penn State Research Foundation, priority 2021, published 2024)
